Measurements published in CN104497008A, “取代噁唑烷酮类化合物及其使用方法和用途” (priority 2014, dated 2015).
In brackets after ≈: the same amount, converted by molar mass.

Test: Solubility test of the compounds
Assay type: physicochemical
Conditions: water, 37 ℃, 24 h shaking, 40 rpm, HPLC; read-out: compound solubility

| Compound | solubility at 24 h |
| --- | --- |
| NC(=O)N1CCc2sc(N3C[C@H](CNC(=O)c4ccc(Cl)s4)OC3=O)cc2C1 [实施例1, (S)-2-(5-((5-氯噻吩-2-甲酰氨基)甲基)-2-氧代噁唑烷-3-基)-6,7-二氢噻吩并[3,2-c]吡啶-5(4H)-甲酰胺] | 240 µg/mL (≈ 544 µM) |
| CC(=O)N1CCc2cc(N3C[C@H](CNC(=O)c4ccc(Cl)s4)OC3=O)sc2C1 [实施例4, (S)-N-((3-(6-乙酰基-4,5,6,7-四氢噻吩并[2,3-c]吡啶-2-基)-2-氧代噁唑烷-5-基)甲基)-5-氯噻吩-2-甲酰胺] | 130 µg/mL (≈ 295 µM) |
| NC(=O)N1CCc2cc(N3C[C@H](CNC(=O)c4ccc(Cl)s4)OC3=O)sc2C1 [实施例3, (S)-2-(5-((5-氯噻吩-2-甲酰氨基)甲基)-2-氧代噁唑烷-3-基)-4,5-二氢噻吩并[2,3-c]吡啶-6(7H)-甲酰胺] | 260 µg/mL (≈ 590 µM) |
| CC(=O)N1CCc2sc(N3C[C@H](CNC(=O)c4ccc(Cl)s4)OC3=O)cc2C1 [实施例2, (S)-N-((3-(5-乙酰基-4,5,6,7-四氢噻吩并[3,2-c]吡啶-2-基)-2-氧代噁唑烷-5-基)甲基)-5-氯噻吩-2-甲酰胺] | 110 µg/mL (≈ 250 µM) |

Second part, the compound after the results:

| solubility at 24 h | Compound |
| --- | --- |
| 230 µg/mL (≈ 557 µM) | CN1CCc2nc(N3C[C@H](CNC(=O)c4ccc(Cl)s4)OC3=O)sc2C1 [实施例5, (S)-5-氯-N-((3-(5-甲基-4,5,6,7-四氢噻唑[5,4-c]吡啶-2-基)-2-氧代噁唑烷-5-基)甲基)噻吩-2-甲酰胺] |
| 150 µg/mL (≈ 333 µM) | CN1CCc2nc(C(=O)NCC3COC(=O)N3C(=O)Nc3ccc(Cl)cn3)sc2C1 (centres unmarked) [实施例8, N-(5-氯吡啶-2-基)-4-((5-甲基-4,5,6,7-四氢噻唑并[5,4-c]吡啶-2-甲酰氨基)甲基)-2-氧代噁唑烷-3-甲酰胺] |
| 220 µg/mL (≈ 534 µM) | CN1CCc2cc(N3C[C@H](CNC(=O)c4ccc(Cl)s4)OC3=O)sc2C1 [实施例6] |
| 80 µg/mL (≈ 187 µM) | O=C(NC[C@H]1CN(c2sc3ccccc3c2Cl)C(=O)O1)c1ccc(Cl)s1 [实施例7, (S)-5-氯-N-((3-(3-氯苯并[b]噻吩-2-基)-2-氧代噁唑烷-5-基)甲基)噻吩-2-甲酰胺] |
